Test results taken from US20160303184A1, “VANCOMYCIN-SUGAR CONJUGATES AND USES THEREOF” (JAWAHARLAL NEHRU CENTRE FOR ADVANCED SCIENTIFIC RESEARCH …, priority 2013, published 2016).
Read-outs that look alike come from different tables or passages of the source.

Assay: Single dose pharmacokinetics
Type: in vivo, CD-1 female mice
Parameters: clearance: unit not given here
Details: 12 mg/kg single i.v., mice, plasma
Protocol: A single dose pharmacokinetic analysis of compound 7 was performed in CD-1 female mice. Mice were administered a single intravenous dose of 12 mg/kg. Blood samples were collected from mice by retro-orbital aspiration and placed into heparinized tubes at different time intervals after dosing. The plasma was separated by centrifugation, and drug plasma concentrations were measured by microbiologic assay with Bacillus subtilis as the test organism. The lower limit of detection of the assay was 0.6 μg/ml. Pharmacokinetic parameters, including half-life, AUC and Cmax were calculated by using non-compartmental model.

SMILES: CCCCCCCCCCN[C@]1(C)C[C@H](OC2C(O)[C@@H](O)C(CO)O[C@@H]2Oc2c3cc4cc2Oc2ccc(cc2Cl)[C@@H](O)[C@@H](NC(=O)[C@@H](CC(C)C)NC)C(=O)N[C@@H](CC(N)=O)C(=O)N[C@H]4C(=O)N[C@H]2C(=O)N[C@H](C(=O)N[C@H](C(=O)NCCCNC(=O)[C@H](O)[C@@H](O)[C@H](OC4OC(CO)C(O)C(O)[C@H]4O)[C@H](O)CO)c4cc(O)cc(O)c4-c4cc2ccc4O)[C@H](O)c2ccc(c(Cl)c2)O3)OC(C)[C@@H]1O (stereo partly shown) [Compound 7]
- Cmax: 703 µg/mL
- Cmin: 1.7 µg/mL
- half-life (female, CD-1, mouse, iv): 2.76 h
- AUC(0-t) (female, CD-1, mouse, iv, read-out: AUC0-24 h): 562 µg·h/mL
- Cmax (female, CD-1, mouse, iv, 12 mg/kg, read-out: Cmax): 703 µg/mL
- clearance (female, CD-1, mouse, iv): 4.17
- AUC (female, CD-1, mouse, iv, 0.083 h to 24 h): 562 µg·h/mL
